Assay results: ChEMBL document CHEMBL1134154, “1-Alkyl-3-amino-5-aryl-1H-[1,2,4]triazoles: novel synthesis via cyclization of N-acyl-S-methylisothioureas with alkylhydrazines and their potent corticotropin-releasing factor-1 (CRF(1)) receptor antagonist activities” (Bioorg Med Chem Lett, 2001); call rule not given here

Assays:
[1] = target: T1, Corticotropin-releasing factor receptor 1 (Homo sapiens, UniProt P34998); assay: Inhibition of [125I]o-CRF binding to human Corticotropin releasing factor receptor 1 expressed in CHO cells.; assay type: cell-based
T1 sequence (P34998 whole entry): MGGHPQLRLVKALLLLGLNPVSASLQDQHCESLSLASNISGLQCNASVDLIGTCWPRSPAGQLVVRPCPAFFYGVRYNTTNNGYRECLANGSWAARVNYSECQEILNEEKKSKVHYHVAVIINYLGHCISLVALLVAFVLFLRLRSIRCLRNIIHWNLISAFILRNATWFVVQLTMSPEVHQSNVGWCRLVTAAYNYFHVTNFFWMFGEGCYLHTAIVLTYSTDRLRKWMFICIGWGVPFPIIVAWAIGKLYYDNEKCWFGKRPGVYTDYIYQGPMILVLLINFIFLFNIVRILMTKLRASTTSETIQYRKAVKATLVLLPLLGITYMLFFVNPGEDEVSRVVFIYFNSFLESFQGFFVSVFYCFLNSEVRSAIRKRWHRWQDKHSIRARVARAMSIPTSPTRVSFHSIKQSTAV

[2] = target: T1, Corticotropin-releasing factor receptor 1; assay: Binding affinity to cloned human Corticotropin releasing factor receptor 1 expressed in CHO cells using [125I]o-CRF as radioligand at 10 uM concentration; In activie; assay type: cell-based
[3] = target: T2, Corticotropin-releasing factor receptor 1 (Homo sapiens) (UniProt P34998); assay: Binding affinity to cloned human Corticotropin releasing factor receptor 1 expressed in CHO cells using [125I]o-CRF as radioligand; assay type: cell-based; settings: concentration not given here
T2 sequence (whole entry): T1 sequence (P34998 whole entry)

[4] = target: T1, Corticotropin-releasing factor receptor 1; assay: Tested for in vivo activity and binding affinity to human Corticotropin releasing factor receptor 1; In activie
[5] = target: T1, Corticotropin-releasing factor receptor 1; assay: Binding affinity to cloned human CRF1 receptor expressed in CHO cells using [125I]o-CRF as radioligand at 10 uM concentration; In activie; assay type: cell-based

Ki [1] [nM] | SMILES | further results
2400 | CCCN(c1n[nH]c(-c2ccc(Cl)cc2Cl)n1)C(C1CC1)C1CC1 | –
9 | CCCN(c1nc(-c2ccc(Cl)cc2Cl)n(C)n1)C(C1CC1)C1CC1 | –
2200 | C=CCn1nc(N(CCC)C(C2CC2)C2CC2)nc1-c1c(C)cc(C)cc1C | –
80 | CCCN(c1nc(-c2ccc(Cl)cc2Cl)n(CC)n1)C(C1CC1)C1CC1 | –
> 10000 | CCCN(c1nc(-c2ccc(Cl)cc2Cl)nn1C)C(C1CC1)C1CC1 | –
22 | CCCN(c1nc(-c2ccc(Cl)cc2C)n(C)n1)C(C1CC1)C1CC1 | –

More lines, now with the values behind:

SMILES | Ki [1] [nM] | further results
CCCN(c1nc(-c2ccc(Cl)cc2OC)n(C)n1)C(C1CC1)C1CC1 | 26 | –
CCCN(CCC)c1nc(-c2ccc(Cl)cc2Cl)n(C)n1 | 2600 | –
CCCN(c1nc(-c2c(C)cc(C)cc2C)n(CC)n1)C(C1CC1)C1CC1 | 310 | –
CCCN(CC1CC1)c1nc(-c2ccc(Cl)cc2Cl)n(C)n1 | > 10000 | –
CCCN(CC1CC1)c1nc(-c2cccc3cc(OC)ccc23)n(C)n1 | – | Ki [2]: Not Active
CCCN(c1nc(-c2ccc(Br)cc2C)n(C)n1)C(C1CC1)C1CC1 | 10 | –
C=CCn1nc(N(CCC)C(C2CC2)C2CC2)nc1-c1ccc(Cl)cc1Cl | – | inhibition [3]: 77%
CCCN(c1nc(-c2cc(F)c(Cl)cc2Cl)n(C)n1)C(C1CC1)C1CC1 | 15 | –
CCCN(c1nc(-c2ccc(Cl)cc2)n(C)n1)C(C1CC1)C1CC1 | 33 | –
CCCN(CC1CC1)c1nc(C)nc(Nc2c(Cl)cc(Cl)cc2Cl)c1Cl | – | Ki [4]: Not Active
CCCN(CCC)c1n[nH]c(-c2ccc(Cl)cc2Cl)n1 | – | Ki [2]: Not Active
CCCN(c1nc(-c2c(C)cc(C)cc2C)n(C)n1)C(C1CC1)C1CC1 | 120 | –
CCCN(CCC)c1nc(-c2ccc(Cl)cc2Cl)n(CCO)n1 | 14 | Ki [5]: Not Active
CCCCN(CC)c1nc(C)nc2c1c(C)cn2-c1c(C)cc(C)cc1C [CP-154526] | – | Ki [4]: Not Active
CCCN(CC1CC1)c1n[nH]c(-c2cccc3cc(OC)ccc23)n1 | – | Ki [2]: Not Active
